Laboratory results reported in patent publication US6399654B1, “Biflavanoids and derivatives thereof as antiviral agents” (priority 1995, dated 2002).
Where a name gives a salt, the structure may show the parent alone. Read-outs that look alike come from different tables or passages of the source.

Experiments:
Adenovirus Type 5 [1] = assay: microbe, parasite or virus in culture; format: cell-based
Adenovirus Type 5 [2] = assay: Adenovirus type 5 neutral red dye uptake in A549 cells; format: cell-based; settings: Adenovirus Type 5
[3] = system: Human lung carcinoma (A549) cells; settings: Adenovirus Type 5 test
[4] = system: Human lung carcinoma (A549) cells
HIV-1 RT = target: T1, HIV-1 RT (Human immunodeficiency virus type 1 group M subtype B, UniProt P03366); assay: Anti-HIV-1 RT assay (recombinant enzyme); format: biochemical; settings: for Anti-HIV-1 RT IC50: values in parentheses or in words
T1 construct: made in house; host or cells: Escherichia coli

HIV-1 (strain LAV-1) = assay: microbe, parasite or virus in culture; format: cell-based; settings: for Selective Index (SI): PBM cells
[5] = Cytotoxicity in uninfected PHA-stimulated human PBM cells; settings: human
[6] = system: Influenza A (H1N1) Texas/36/91; assay: microbe, parasite or virus in culture; format: cell-based, influenza A virus; settings: Influenza A (H1N1) Texas/36/91
[7] = system: Influenza A (H1N1) Texas/36/91; assay: microbe, parasite or virus in culture; format: cell-based, influenza A virus; settings: Influenza A (H1N1) Texas/36/91; remark: listed apart in the source
[8] = system: Influenza A (H3N2) Beijing/32/92; assay: microbe, parasite or virus in culture; format: cell-based, influenza A virus; settings: Influenza A (H3N2) Beijing/32/92
[9] = system: Influenza A (H3N2) Beijing/32/92; assay: microbe, parasite or virus in culture; format: cell-based, influenza A virus; settings: Influenza A (H3N2) Beijing/32/92; remark: listed apart in the source
Influenza B Panama/45/90 [10] = assay: microbe, parasite or virus in culture; format: cell-based; settings: Influenza B Panama/45/90
Measles Virus [11] = assay: microbe, parasite or virus in culture; format: cell-based; settings: Measles Virus
Measles Virus [12] = assay: Measles virus neutral red dye uptake in BSC-1 cells; format: cell-based
[13] = system: Parainfluenza Type 3 Virus; assay: organism not typed; format: cell-based; settings: Parainfluenza Type 3 Virus
[14] = system: Parainfluenza Type 3 Virus; assay: organism not typed; format: cell-based
[15] = system: Respiratory Syncytial Virus; assay: microbe, parasite or virus in culture; format: cell-based; settings: Respiratory Syncytial Virus
[16] = system: Respiratory Syncytial Virus; assay: microbe, parasite or virus in culture; format: cell-based; settings: Respiratory Syncytial Virus; remark: listed apart in the source
[17] = system: Madin Darby canine kidney (MDCK) cells; settings: for CPE Inhibition IC50 (50% cell inhibitory (cytotoxic) concentration): Influenza A (H1N1) test
[18] = system: Madin Darby canine kidney (MDCK) cells
[19] = system: African green monkey kidney (BSC-1) cells; settings: Measles Virus test
[20] = system: African green monkey kidney (BSC-1) cells
[21] = system: African green monkey kidney (MA-104) cells; settings: for CPI Inhibition IC50 (cytotoxic): Parainfluenza Type 3 Virus test; for CPE Inhibition IC50 (cytotoxic): Respiratory Syncytial Virus test
HCMV = HCMV CPE inhibition in HFF cells; settings: HFF Cells
HSV-1 = HSV-1 CPE inhibition in HFF cells; settings: HFF Cells
HSV-2 = HSV-2 CPE inhibition in HFF cells; settings: HFF Cells
VZV = VZV plaque reduction assay in HFF cells; settings: for VZV Plaque Reduction EC50 / VZV SI (CC50/EC50): HFF Cells
Hepatitis B Virus (HBV) = assay: Inhibition of HBV replication in 2.2.15 cells, extracellular (virion) HBV DNA; settings: for anti-HBV activity (in words) / EC50 / EC90: 2.2.15 cells; for SI (CC50/EC90), HBV Virion: selective index; for EC50: read-out: EC50 (50% effective dose), HBV Virion; for EC50 / EC90: extracellular (virion) HBV DNA, 9 days treatment; for EC90: read-out: EC90 (90% effective dose), HBV Virion;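 as to all read-outs here: extracellular virion HBV DNA in culture medium measured by slot blot hybridization with a 32P-labeled HBV probe, quantified against HBV DNA standards, after 9 days of daily dosing, compared with day 0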
Method: Test compounds were added daily for a nine continuous day period; the culture medium was collected and stored for analysis of extracellular (virion) HBV DNA after 0, 3, 6, and 9 days of treatment. The treated cells were lysed 24 hours following day 9 of treatment for the analysis of intracellular HBV genomic forms. The overall levels of HBV DNA (both extracellular and intracellular DNA) and the relative rate of HBV replication (intracellular DNA) were analyzed quantitatively. The analysis was performed using blot hybridization techniques and [^32P]-labeled HBV-specific probes. The HBV DNA levels were measured by comparison to known amounts of HBV DNA standards applied to every nitrocellulose membrane (gel or slot blot). An AMBIS beta scanner, which measures the radioactive decay of the hybridized probes directly from the nitrocellulose membranes, was used for the quantitative analysis. Standard curves, generated by multiple analyses, were used to correlate CPM measurements made by the beta scanner with relative levels of target HBV DNA. The levels of HBV virion DNA released into the culture medium were analyzed by a slot blot hybridization procedure. HBV DNA levels were then compared to those at day 0 to determine the effect of the test compound. A known positive drug was evaluated in parallel with test compounds in each test.
Determination of therapeutic concentrations (EC50 and EC90) and toxicity concentrations (IC50) were determined as previously described (90). Stock solutions of text drugs were prepared in DMSO. Culture medium was changed daily and analyzed for extracellular HBV DNA after nine days of continuous drug exposure. Extracellular HBV DNA was extracted from the culture media and analyzed by a slot blot hydridization technique, using a ^32P-labeled Eco RI HBV DNA fragment, as previously described (91), and quantitated via comparison to HBV standards on a nitrocellulose filter, using an AMBIS beta scanner. Toxicity was determined by measuring inhibition of neutral red dye uptake. […] Effective concentration values for individual agents are the mean of six cultures per concentration point. Toxicity values are the mean of three cultures per concentration point.

adenovirus type 1 = assay: Activity against adenovirus type 1; format: cell-based; settings: Human mastadenovirus C
Influenza B Panama/45/90 [22] = assay: microbe, parasite or virus in culture; format: cell-based

Nc1ncnc2c1ncn2C[C@@H](CO)OCP(=O)(O)O [HPMPA, (S)-1-(3-hydroxy-2-phosophonylmethoxypropyl)adenine, reference compound]
CPE Inhibition EC50 (Adenovirus Type 5 [1]): 30 µg/mL | Neutral Red EC50 (Adenovirus Type 5 [2]): 8 µg/mL | CPE Inhibition IC50 (cytotoxic) [3]: 80 µg/mL | Neutral Red IC50 (cytotoxic) [4]: 40 µg/mL

O=C1c2c(O)cc(O)cc2O[C@H](c2ccc(O)cc2)[C@H]1c1c(O)cc(O)c2c(=O)cc(-c3ccc(O)c(O)c3)oc12 [Morelloflavone(7), morelloflavone]
IC50 (HIV-1 RT; Anti-HIV-1 RT IC50, values in parentheses or in words): 116 µM | IC50 (HIV-1 RT; HIV-1 RT IC50 (50% inhibition dose)): 116 µM | inhibition at 200 µg/mL (HIV-1 RT; read-out: Anti-HIV-1 RT % Inhibition at 200 μg/ml): 99.2% | anti-HIV-1 activity in PBM cells (in words) (HIV-1 (strain LAV-1)): potent inhibitory activity | EC50 (HIV-1 (strain LAV-1); Human immunodeficiency virus 1, PBMC, human PBM cells infected with HIV-1 (strain LAV), read-out: Ant-HIV-1 in PBM cells EC50): 5.7 µM | EC50 (HIV-1 (strain LAV-1); Human immunodeficiency virus 1, PBMC, read-out: EC50 (50% effective dose) in PBM cells infected with HIV-1, whole cell assay): 5.7 µg/mL | Selective Index (SI) (HIV-1 (strain LAV-1)): 12 | Selective Index (SI) (HIV-1 (strain LAV-1); listed as Morelloflavone): approximately 10 | EC50 (HIV-1 (strain LAV-1); human PBM cells infected with HIV-1 (strain LAV), read-out: Ant-HIV-1 in PBM cells EC50): 8 µM | EC50 (50% effective dose) in PBM cells infected with HIV-1 (HIV-1 (strain LAV-1); whole cell assay): 8.0 µg/mL | IC50 [5]: 82 µM

CC(=O)Oc1ccc([C@@H]2CC(=O)c3c(cc(OC(C)=O)c(-c4c(OC(C)=O)cc(OC(C)=O)c5c4O[C@H](c4ccc(OC(C)=O)cc4)CC5=O)c3OC(C)=O)O2)cc1 [Rhusflavanone hexaacetate (10), rhusflavanone hexaacetate]
CPE Inhibition EC50 [6]: >10 µg/mL | Neutral Red EC50 [7]: 5.6 µg/mL | CPE Inhibition EC50 [8]: >10 µg/mL | Neutral Red EC50 [9]: 5.4 µg/mL | CPE Inhibition EC50 (Influenza B Panama/45/90 [10]): >10 µg/mL | CPI Inhibition EC50 (Measles Virus [11]): ˜3 ug/ml | Neutral Red EC50 (Measles Virus [12]): <10 µg/mL | CPE Inhibition EC50 (Adenovirus Type 5 [1]): >10 µg/mL | Neutral Red EC50 (Adenovirus Type 5 [2]): 19 µg/mL | CPI Inhibition EC50 [13]: >10 µg/mL | Neutral Red EC50 [14]: 32 µg/mL | CPE Inhibition EC50 [15]: >10 µg/mL | Neutral Red EC50 [16]: 19 µg/mL | Anti-HIV-1 RT % Inhibition at 200 μg/ml (HIV-1 RT): 0.00% | Anti-HIV-1 RT IC50 (HIV-1 RT): Inactive | CPE Inhibition IC50 (50% cell inhibitory (cytotoxic) concentration) [17]: 7.2 µg/mL | CPE Inhibition IC50 (cytotoxic) ([17]; Influenza A (H3N2) test): 5.6 µg/mL | CPE Inhibition IC50 (cytotoxic) ([17]; Influenza B test): 4.2 µg/mL | Neutral Red IC50 (cytotoxic) ([18]; Influenza A (H1N1) test): 5.7 µg/mL | Neutral Red IC50 (cytotoxic) ([18]; Influenza A (H3N2) test): 5.3 µg/mL | CPI Inhibition IC50 (cytotoxic) [19]: <4 µg/mL | Neutral Red IC50 (cytotoxic) [20]: <11 µg/mL | CPE Inhibition IC50 (cytotoxic) [3]: 22 µg/mL | Neutral Red IC50 (cytotoxic) [4]: 26 µg/mL | CPI Inhibition IC50 (cytotoxic) [21]: 22 µg/mL | CPE Inhibition IC50 (cytotoxic) [21]: 13 µg/mL | HCMV CPE Inhibition CC50 (HFF Cells): 13.4 µg/mL | HSV-1 CPE Inhibition CC50 (HFF Cells): 18.5 µg/mL | HSV-2 CPE Inhibition CC50 (HFF Cells): 18.5 µg/mL | VZV Plaque Reduction CC50 (HFF Cells): 46.7 µg/mL | HCMV CPE Inhibition EC50 (HCMV): >4.0 µg/mL | HCMV SI (CC50/EC50) (HCMV): <3.3 | HSV-1 CPE Inhibition EC50 (HSV-1): >4.0 µg/mL | HSV-1 SI (CC50/EC50) (HSV-1): <4.6 | HSV-2 CPE Inhibition EC50 (HSV-2): >4.0 µg/mL | HSV-2 SI (CC50/EC50) (HSV-2): <4.6 | VZV Plaque Reduction EC50 (VZV): 11.3 µg/mL | VZV SI (CC50/EC50) (VZV): 4.1 | anti-HBV activity (in words) (Hepatitis B Virus (HBV)): moderate anti-HBV activity | SI (CC50/EC90), HBV Virion (Hepatitis B Virus (HBV)): 2.8

O=c1cc(-c2ccc(O)c(-c3c(O)cc4oc(-c5ccc(O)cc5)cc(=O)c4c3O)c2)oc2cc(O)cc(O)c12 [Robustaflavone sodium salt, Robustaflavone tetrasodium salt]
EC50 (adenovirus type 1): 32 µM | IC50 (adenovirus type 1; 50% cell inhibitory (cytotoxic) concentration, read-out: IC50 in the adenovirus type 1 test): > 160 µM | fold less active/potent than robustaflavone against HBV (Hepatitis B Virus (HBV); in vitro assay against HBV): approximately 10 fold | EC50 (Hepatitis B Virus (HBV)): 3.1 µM | EC90 (Hepatitis B Virus (HBV)): 12 µM | SI (CC50/EC90), HBV Virion (Hepatitis B Virus (HBV)): 88

CC(=O)Oc1ccc([C@@H]2CC(=O)c3c(cc(OC(C)=O)c(-c4c(OC(C)=O)cc5c(c4OC(C)=O)C(=O)C[C@@H](c4ccc(OC(C)=O)cc4)O5)c3OC(C)=O)O2)cc1 [Succedaneaflavanone hexaacetate (12), succedaneaflavanone hexaacetate]
CPE Inhibition EC50 [6]: 5.6 µg/mL | Neutral Red EC50 [7]: 7.4 µg/mL | CPE Inhibition EC50 [8]: 8.8 µg/mL | Neutral Red EC50 [9]: 5.6 µg/mL | CPE Inhibition EC50 (Influenza B Panama/45/90 [10]): 5.4 µg/mL | Neutral Red EC50 (Influenza B Panama/45/90 [22]): 5.9 µg/mL | CPI Inhibition EC50 (Measles Virus [11]): ˜3.2 ug/ml | Neutral Red EC50 (Measles Virus [12]): <2 µg/mL | CPE Inhibition EC50 (Adenovirus Type 5 [1]): 20 µg/mL | Neutral Red EC50 (Adenovirus Type 5 [2]): 6 µg/mL | CPI Inhibition EC50 [13]: >10 µg/mL | Neutral Red EC50 [14]: >32 µg/mL | CPE Inhibition EC50 [15]: >3 µg/mL | Neutral Red EC50 [16]: 6 µg/mL | Anti-HIV-1 RT % Inhibition at 200 μg/ml (HIV-1 RT): 0.00% | Anti-HIV-1 RT IC50 (HIV-1 RT): Inactive | CPE Inhibition IC50 (50% cell inhibitory (cytotoxic) concentration) [17]: 8.2 µg/mL | CPE Inhibition IC50 (cytotoxic) ([17]; Influenza A (H3N2) test): 12 µg/mL | CPE Inhibition IC50 (cytotoxic) ([17]; Influenza B test): 12 µg/mL | Neutral Red IC50 (cytotoxic) ([18]; Influenza A (H1N1) test): 7.4 µg/mL | Neutral Red IC50 (cytotoxic) ([18]; Influenza A (H3N2) test): 5.6 µg/mL | Neutral Red IC50 (cytotoxic) ([18]; Influenza B test): 5.9 µg/mL | CPI Inhibition IC50 (cytotoxic) [19]: <4 µg/mL | Neutral Red IC50 (cytotoxic) [20]: <200 µg/mL | CPE Inhibition IC50 (cytotoxic) [3]: 19 µg/mL | Neutral Red IC50 (cytotoxic) [4]: 6 µg/mL | CPI Inhibition IC50 (cytotoxic) [21]: ˜14 ug/ml | CPE Inhibition IC50 (cytotoxic) [21]: 4 µg/mL | HCMV CPE Inhibition CC50 (HFF Cells): 14.4 µg/mL | HSV-1 CPE Inhibition CC50 (HFF Cells): 17.7 µg/mL | HSV-2 CPE Inhibition CC50 (HFF Cells): 17.7 µg/mL | VZV Plaque Reduction CC50 (HFF Cells): 68.0 µg/mL | HCMV CPE Inhibition EC50 (HCMV): >4.0 µg/mL | HCMV SI (CC50/EC50) (HCMV): <3.5 | HSV-1 CPE Inhibition EC50 (HSV-1): >4 µg/mL | HSV-1 SI (CC50/EC50) (HSV-1): <4.4 | HSV-2 CPE Inhibition EC50 (HSV-2): >4.0 µg/mL | HSV-2 SI (CC50/EC50) (HSV-2): <4.4 | activity against VZV (in words) (VZV): moderately active | VZV Plaque Reduction EC50 (VZV): 7.1 µg/mL | VZV SI (CC50/EC50) (VZV): 9.6 | anti-HBV activity (in words) (Hepatitis B Virus (HBV)): moderate anti-HBV activity | EC50 (Hepatitis B Virus (HBV)): 3.5 µM | EC90 (Hepatitis B Virus (HBV)): 128 µM | SI (CC50/EC90), HBV Virion (Hepatitis B Virus (HBV)): 1.9
